In the assay the target is T1, CK1a (Homo sapiens, UniProt P48729+Q96SW2).
T1 construct: host or cells: HEK293 and HEK293 CRBN knock-out clone B2 (generated internally)
Briefly: Western blot assay of CK1a levels in HEK293 and HEK293 CRBN knock-out cells. It is filed as cell-based. Particulars: 0.1, 1, 10 μM, 24 hours. The method, then:
FIG. 1 depicts effects of Compound 147 on CK1a levels in an HEK293 cell line in comparison to effects of Compound 147 on CK1a levels in a cereblon (CRBN) knock-out HEK293 cell line.
HEK293 cell line was purchased from ATCC (CRL-1573). HEK293 CRBN knock out (k/o) cell line (B2) was generated internally using CRISPR/Cas9 method and clonally expanded. Cells were plated at 2×10^5 cells per well in 6-well tissue culture plates (VWR) in 2 ml of DMEM media (Gibco) containing 10% FBS (Gibco), and incubated for 16 hours at 37° C., 5% CO2. Compounds were added to final concentration of 0.1 μM, 1 μM, 10 μM (DMSO concentration was kept constant at 0.1%), following incubation at 37° C., 5% CO2 for additional 24 hours. Cell lysis was performed using RIPA buffer (Pierce) containing Halt™ Protease Inhibitor Cocktail (ThermoFisher Scientific). Lysates were boiled at 95° C. for 10 minutes and 12 μg of protein lysate per sample was resolved by SDS-PAGE using 12% gels (BioRad) and transferred to nitrocellulose membrane (BioRad). Membranes were blocked using LI-COR blocking buffer (LI-COR) at room temperature for 1 hour, followed by overnight incubation with rabbit anti-CK1a (Abcam ab206652), rabbit anti-CRBN (Sigma HPA045910) and mouse anti-α-tubulin (Sigma T9026) antibodies at 4° C. […]
On the technique in general: Immunoblotting shows a protein as a band on a membrane.

SMILES strings stand for the structures.

T1 sequence (P48729 whole entry): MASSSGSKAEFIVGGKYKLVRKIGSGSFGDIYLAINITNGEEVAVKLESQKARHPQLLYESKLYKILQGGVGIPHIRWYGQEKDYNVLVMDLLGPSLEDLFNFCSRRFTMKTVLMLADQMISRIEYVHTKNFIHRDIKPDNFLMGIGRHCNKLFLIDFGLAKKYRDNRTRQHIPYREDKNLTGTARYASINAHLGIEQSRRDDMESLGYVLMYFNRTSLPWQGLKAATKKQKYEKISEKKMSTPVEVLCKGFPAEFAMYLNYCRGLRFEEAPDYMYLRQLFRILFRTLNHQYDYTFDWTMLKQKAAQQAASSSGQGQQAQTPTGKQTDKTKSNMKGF
T1 sequence (Q96SW2 whole entry): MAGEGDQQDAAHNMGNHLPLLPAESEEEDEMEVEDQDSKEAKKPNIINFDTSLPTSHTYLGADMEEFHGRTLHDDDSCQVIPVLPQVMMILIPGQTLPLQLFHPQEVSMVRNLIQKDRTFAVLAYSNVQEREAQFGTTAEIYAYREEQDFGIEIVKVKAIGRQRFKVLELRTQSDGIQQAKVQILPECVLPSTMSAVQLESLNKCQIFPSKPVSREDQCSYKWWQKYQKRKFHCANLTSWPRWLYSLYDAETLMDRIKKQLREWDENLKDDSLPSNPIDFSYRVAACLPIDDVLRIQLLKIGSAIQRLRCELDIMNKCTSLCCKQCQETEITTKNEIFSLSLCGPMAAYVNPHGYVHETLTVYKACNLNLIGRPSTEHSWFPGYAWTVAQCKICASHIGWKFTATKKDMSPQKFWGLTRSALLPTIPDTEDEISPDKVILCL
T1 sequence (Q16531 2-1140 partner limits assumed): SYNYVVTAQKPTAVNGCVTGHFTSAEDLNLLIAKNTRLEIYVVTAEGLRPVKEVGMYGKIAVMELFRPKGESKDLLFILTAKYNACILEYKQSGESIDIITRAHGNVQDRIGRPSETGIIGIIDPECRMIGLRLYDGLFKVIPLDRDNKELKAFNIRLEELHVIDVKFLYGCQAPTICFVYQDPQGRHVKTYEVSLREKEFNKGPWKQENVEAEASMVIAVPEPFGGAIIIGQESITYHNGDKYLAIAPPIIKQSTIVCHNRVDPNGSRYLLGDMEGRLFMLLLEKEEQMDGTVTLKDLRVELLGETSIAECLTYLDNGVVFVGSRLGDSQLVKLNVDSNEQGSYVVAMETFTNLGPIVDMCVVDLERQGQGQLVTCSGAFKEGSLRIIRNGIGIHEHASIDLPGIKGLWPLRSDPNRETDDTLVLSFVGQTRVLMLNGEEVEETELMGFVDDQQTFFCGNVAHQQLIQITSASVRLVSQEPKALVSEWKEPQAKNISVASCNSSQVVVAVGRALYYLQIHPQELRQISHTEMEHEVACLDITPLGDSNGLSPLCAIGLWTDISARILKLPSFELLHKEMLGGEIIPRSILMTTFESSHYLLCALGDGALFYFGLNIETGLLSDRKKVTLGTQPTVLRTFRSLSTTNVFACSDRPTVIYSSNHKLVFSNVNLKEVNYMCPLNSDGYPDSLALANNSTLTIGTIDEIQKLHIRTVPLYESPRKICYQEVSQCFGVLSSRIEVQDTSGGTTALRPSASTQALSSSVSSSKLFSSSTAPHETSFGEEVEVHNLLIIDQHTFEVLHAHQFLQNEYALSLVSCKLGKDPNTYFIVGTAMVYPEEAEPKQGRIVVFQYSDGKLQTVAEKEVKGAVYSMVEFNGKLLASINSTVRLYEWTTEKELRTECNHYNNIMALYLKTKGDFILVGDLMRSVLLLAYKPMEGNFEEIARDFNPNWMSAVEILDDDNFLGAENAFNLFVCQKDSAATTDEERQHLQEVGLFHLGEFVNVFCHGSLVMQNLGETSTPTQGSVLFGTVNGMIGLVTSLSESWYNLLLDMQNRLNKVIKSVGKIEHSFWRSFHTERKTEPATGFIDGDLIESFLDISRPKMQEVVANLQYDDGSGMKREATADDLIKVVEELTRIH

On to `O=C1CCC(N2Cc3cc(NC(=O)c4ccc(Cl)cc4)ccc3C2=O)C(=O)N1` (centres unmarked) [Compound 147], for which, under “HEK293 CRBN knock-out cell line”, the “CK1a levels in cereblon (CRBN) knock-out HEK293 cell line (Western blot, FIG. 1)” value is recorded as “no effect on CK1a levels”. Moreover, under “HEK293 cell line, cereblon present”, the “CK1a levels in HEK293 cell line (Western blot, FIG. 1)” value is reported as “decreases CK1a levels”.
